Results on seven molecules are retold here after patent publication US9340507B2, “Substituted 4-pyridones and their use as inhibitors of neutrophil elastase activity” (Boehringer Ingelheim International GmbH, priority 2012, dated 2016).

pIC50: −log10 of the molar value.

A short description of data set [1]: Determination of aqueous solubility from DMSO stock solutions (kinetic solubility method). The data set is classed as physicochemical. To be noted: McIlvaine buffer pH 6.8, 24 h shaking, 2.5% DMSO, range 0.001 to 0.125 mg/ml. As to the method:
Determination of Aqueous Solubility from DMSO Stock Solutions (“Kinetic Solubility Method”)
The aqueous solubility of examples of this invention is determined by comparing the amount dissolved in buffer to the amount dissolved in an acetonitrile/water (1/1) solution. Starting from a 10 mM DMSO stock solution, aliquots are diluted with acetonitrile/water (1/1) and McIlvaine buffer pH 6.8, respectively. After 24 h of shaking, the liquid phase is filtered and analyzed by LC-UV. The amount dissolved in buffer is compared to the amount dissolved in the acetonitrile/water (1/1) solution. Solubility is measured from 0.001 to 0.125 mg/ml at a DMSO concentration of 2.5%.

The target of data set [2] is Human neutrophil elastase (Homo sapiens (Human), UniProt P08246). Kind of data set: Human Neutrophil Elastase Assay. Type of data set: biochemical. The conditions noted are these: substrate MeOSuc-Ala-Ala-Pro-Val-AMC 250 μM, pH 7.5, fluorescence.

One may read the aqueous solubility as the dissolved amount per volume that the medium holds. The pIC50 is the IC50 on a negative log10 scale, so that one unit is a factor of ten. A higher pIC50 goes with a low IC50.

Chain of Human neutrophil elastase (P08246 30-267): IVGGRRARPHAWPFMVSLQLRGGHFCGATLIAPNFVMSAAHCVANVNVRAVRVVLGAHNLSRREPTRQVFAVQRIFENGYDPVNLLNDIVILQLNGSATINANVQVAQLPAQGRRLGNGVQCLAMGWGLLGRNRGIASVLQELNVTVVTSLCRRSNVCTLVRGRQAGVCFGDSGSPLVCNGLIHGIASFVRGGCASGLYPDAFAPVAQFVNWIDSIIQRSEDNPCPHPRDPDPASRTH

In the case of `Cc1c(-c2cccc(C(F)(F)F)c2)c(=O)c(C(=O)NCc2ccc([S+](C)[O-])cc2)cn1C(C)C` (single isomer, unassigned) [Example 27.1A], in data set [1], the “aqueous solubility at pH 6.8” value came to 0.081 mg/mL. In data set [2], this molecule gave a pIC50 of 8.27. For `Cc1c(-c2cccc(C(F)F)c2)c(=O)c(C(=O)NCc2ccc(S(C)(=O)=O)cc2)cn1C(C)C` [Example 4.14] the same measures were 0.076 mg/mL and 7.96. In turn, `Cc1c(-c2cccc(C(F)(F)F)c2)c(=O)c(C(=O)NCc2ccc(S(C)(=O)=O)cc2)cn1CC(F)F` [Example 46, 1-(2,2-Difluoro-ethyl)-6-methyl-4-oxo-5-(3-trifluoromethyl-phenyl)-1,4-dihydro-pyridine-3-carboxylic acid 4-methanesulfonyl-benzylamide] had a pIC50 in data set [2] of 7.34. Same read-out and setting: for `COc1cc(S(C)(=O)=O)ccc1CNC(=O)c1cn(C(C)C)c(C)c(-c2cccc(C(F)(F)F)c2)c1=O` [Example 47, 1-Isopropyl-6-methyl-4-oxo-5-(3-trifluoromethyl-phenyl)-1,4-dihydro-pyridine-3-carboxylic acid 4-methanesulfonyl-2-methoxy-benzylamide] the value was 7.42; for `Cc1c(-c2cccc(C(F)(F)F)c2)c(=O)c(C(=O)NCc2ccc3c(c2)C=CS3(=O)=O)cn1C(C)C` [Example 48, 1-Isopropyl-6-methyl-4-oxo-5-(3-trifluoromethyl-phenyl)-1,4-dihydro-pyridine-3-carboxylic acid (1,1-dioxo-1H-1λ^6-benzo[b]thiophen-5-ylmethyl)-amide], 7.96; for `COc1cc(CNC(=O)c2cn(C(C)C)c(C)c(-c3cccc(C(F)(F)F)c3)c2=O)ccc1S(C)(=O)=O` [Example 49, 1-Isopropyl-6-methyl-4-oxo-5-(3-trifluoromethyl-phenyl)-1,4-dihydro-pyridine-3-carboxylic acid 4-methanesulfonyl-3-methoxy-benzylamide], 7.33.

With `Cc1c(-c2cccc(C(F)F)c2)c(=O)c(C(=O)NCc2ccc3c(c2)C=CS3(=O)=O)cn1C(C)C` [Example 50, 5-(3-Difluoromethyl-phenyl)-1-isopropyl-6-methyl-4-oxo-1,4-dihydro-pyridine-3-carboxylic acid (1,1-dioxo-1H-1λ^6-benzo[b]thiophen-5-ylmethyl)-amide1], the pIC50 in data set [2] was 8.11.
